Data published in US5756501A, “Saturated and unsaturated pyridazino[4,5-B] indolizines useful as antidementia agents” (American Home Products Corporation, priority 1996, dated 1998).
Residue numbers refer to the chain shown, from its start.

Legend:
Human m1 receptors = Human m1 receptors (Homo sapiens, UniProt P11229); assay: biochemical; format: binding
muscarinic M1 receptors [1] = molecular target: T1, muscarinic M1 receptors (Rattus norvegicus, UniProt P08482); assay: Tritiated pirenzepine ([^3 H]PZ) binding inhibition, rat brain cortex (M1 binding); conditions: [^3 H]PZ 0.5 nM, read-out: M1 Binding % Inhib. of [^3 H] Pz @ 10 μM
T1 construct: The cortex of rat brains obtained from male Sprague-Dawley rats; from tissue; host or cells: rat brain cortex homogenate (male Sprague-Dawley)
T1 sequence (P08482 1-460): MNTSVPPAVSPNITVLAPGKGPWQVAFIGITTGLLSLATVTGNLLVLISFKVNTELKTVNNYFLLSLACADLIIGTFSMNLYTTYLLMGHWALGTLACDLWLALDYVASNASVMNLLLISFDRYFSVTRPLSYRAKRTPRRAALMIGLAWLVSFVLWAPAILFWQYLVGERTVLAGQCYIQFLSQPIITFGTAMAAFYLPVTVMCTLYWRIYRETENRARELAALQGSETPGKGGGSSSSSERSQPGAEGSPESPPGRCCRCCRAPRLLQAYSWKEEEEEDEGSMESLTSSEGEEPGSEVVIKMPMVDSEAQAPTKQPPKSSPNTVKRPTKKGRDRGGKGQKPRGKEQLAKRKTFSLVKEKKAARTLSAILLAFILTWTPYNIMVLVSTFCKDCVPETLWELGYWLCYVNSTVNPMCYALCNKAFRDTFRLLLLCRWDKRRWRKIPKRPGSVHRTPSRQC
Protocol: The cortex of rat brains obtained from male Sprague-Dawley rats (300 g) are homogenized using a hand-held teflon-coated pestle in 20 volumes of 0.32M sucrose. After centrifugation (747×g for 10 min at 4° C.), the resultant supernatant is decanted and recentrifuged (18677×g for 20 min at 4° C.). The resultant pellet is resuspended in the original volume of 0.32M sucrose and frozen. After thawing, the suspension is diluted (1:1 v/v) with 10 mM Na2 HPO4 /KH2 PO4 buffer (pH=7.4). [^3 H]PZ (0.5 nM, 0.04 μCi) is then incubated in multiple tubes with a 100 μl sample of the tissue suspension and 10 μl of a test compound solution (10 μM in water or ethanol) or vehicle (for control) in a sufficient quantity of the above phosphate buffer to give a total volume of 1 ml. One half of the tubes also contain 2 μM atropine sulfate which binds non-specifically with muscarinic receptors and provides for correcting the data for binding with other muscarinic receptors which may be present. After 60 minutes of incubation as 25° C. in the dark, the binding is terminated by vacuum filtration onto Whatman GF/B filters (pre-soaded for 60 minutes in 0.1% (w/v) polyethylenimine to reduce non-specific binding). After three washes with the phosphate buffer (4° C., 3 ml/wash) the vacuum is allowed to continue for two minutes before the filter-trapped radioactivity is assayed by liquid scintillation spectroscopy. Specific [^3 H]PZ binding is defined as total binding minus binding in the presence of 2 μM atropine sulfate. Data are pesented in Table I below as the percent inhibition ([control-test]/control×100%) of [^3 H]PZ binding by the test or reference compound.

muscarinic M2 receptors [2] = molecular target: muscarinic M2 receptors (Rattus norvegicus, UniProt P10980); assay: biochemical; format: binding
Chain of muscarinic M2 receptors (Rattus norvegicus, UniProt P10980) (P10980 whole entry): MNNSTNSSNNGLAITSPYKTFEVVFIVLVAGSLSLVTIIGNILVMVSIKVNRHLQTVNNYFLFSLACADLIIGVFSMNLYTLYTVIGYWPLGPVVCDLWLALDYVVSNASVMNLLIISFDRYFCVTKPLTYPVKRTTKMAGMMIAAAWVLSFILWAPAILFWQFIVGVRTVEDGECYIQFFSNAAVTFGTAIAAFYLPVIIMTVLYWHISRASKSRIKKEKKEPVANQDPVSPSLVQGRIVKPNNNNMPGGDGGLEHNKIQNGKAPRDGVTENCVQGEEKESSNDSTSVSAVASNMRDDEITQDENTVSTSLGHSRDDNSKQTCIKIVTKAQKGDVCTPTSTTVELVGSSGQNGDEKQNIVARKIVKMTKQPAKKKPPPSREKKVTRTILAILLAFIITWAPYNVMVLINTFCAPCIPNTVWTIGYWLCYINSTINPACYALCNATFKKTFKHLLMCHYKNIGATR

muscarinic M2 receptors [3] = assay: biochemical; format: binding, rat; conditions: selectivity M1 versus M2
muscarinic M1 receptors [4] = molecular target: T1, muscarinic M1 receptors; assay: Tritiated pirenzepine ([^3 H]PZ) binding inhibition, rat brain cortex (M1 binding)
[5] = molecular target: T2, M1 acetylcholine receptors (Homo sapiens, UniProt P11229); assay: cell-based; conditions: CHO, 1 h; read-out: PI Turnover % above baseline
T2 sequence (P11229 1-460): T1 sequence (P08482 1-460) with V5A, S254T, S309P, K320R, G337A, V413I

[6] = in vivo; cited from earlier work
Alzheimer's Disease = conditions: cited from earlier work; for improvement in memory: patients with mild to moderate Alzheimer's Disease
[7] = quaternary ammonium compounds; cited from earlier work
m1 receptors = conditions: cited from earlier work

Chain of Human m1 receptors (P11229 whole entry): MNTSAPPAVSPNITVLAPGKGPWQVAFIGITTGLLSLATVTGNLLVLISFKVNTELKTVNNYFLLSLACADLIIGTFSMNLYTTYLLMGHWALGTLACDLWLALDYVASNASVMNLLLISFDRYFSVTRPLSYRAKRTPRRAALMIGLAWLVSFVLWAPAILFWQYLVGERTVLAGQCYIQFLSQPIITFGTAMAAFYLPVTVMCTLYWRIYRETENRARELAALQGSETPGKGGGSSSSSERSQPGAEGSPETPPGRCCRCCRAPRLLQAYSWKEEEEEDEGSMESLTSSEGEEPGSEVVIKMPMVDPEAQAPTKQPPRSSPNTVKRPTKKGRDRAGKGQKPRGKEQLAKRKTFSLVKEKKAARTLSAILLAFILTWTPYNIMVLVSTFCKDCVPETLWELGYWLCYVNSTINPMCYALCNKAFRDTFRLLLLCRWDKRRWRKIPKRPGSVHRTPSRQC

## FC(F)(F)c1nnc(NCCCCN2CC3CCC(CC3)C2)c2cc3ccccn3c12 [Example 1, N-[4-(3-Azabicyclo[3.2.2]non-3-yl)butyl]-4-(trifluoromethyl)pyridazino[4,5b]indolizine-1-amine]
Human m1 receptors
  Ki: 240 nM

## FC(F)(F)c1nnc(NCCCN2CC3CCC(CC3)C2)c2cc3ccccn3c12 [Example 2]
Human m1 receptors
  Ki: 140 nM

## CCN(CC)CCCNc1nnc(COC)c2c1cc1ccccn12 [Example 3, N,N-Diethyl-N'-[4-(methoxymethyl)pyridazino[4,5-b]indolizin-1-yl]-1.3-propanediamine]
Muscarinic M1 receptors [1]
  inhibition at 10 µM: 98.4%

## COCc1nnc(NCCCN2CC3CCC(CC3)C2)c2cc3ccccn3c12 [Example 4, N-[3-(3-Azabicyclo[3.2.2]non-3-yl)propyl]-4-(methoxymethyl)pyridazino[4.5-b]indolizin-1-amine]
Muscarinic M1 receptors [1]
  inhibition at 10 µM: 100%

## COCc1nnc(NCCCCN2CC3CCC(CC3)C2)c2cc3ccccn3c12 [Example 5, N-[4-(3-Azabicyclo[3.2.2]non-3-yl)butyl]-4-(methoxymethyl)pyridazino[4.5-b]indolizin-1-amine]
Muscarinic M1 receptors [1]
  inhibition at 10 µM: 100%

## c1ccc(COCc2nnc(NCCN3CCN(c4ncccn4)CC3)c3cc4ccccn4c23)cc1 [Example 6, 4-[(Phenylmethoxy)methyl]-N-[2-[4-(2-pyrimidinyl)-1-piperazinyl]ethyl]pyridazino[4,5-b]indolizin-1-amine]
Muscarinic M1 receptors [1]
  inhibition at 10 µM: 98.3%

## CCN(CC)CCCNCc1nnc(NCCCN(CC)CC)c2cc3ccccn3c12 [Example 7, N,N-Diethyl-N'-[4-[[[3-(diethylamino)propyl]amino]methyl]-pyridazino[4.5-b]indolizin-1-yl]-1,3-propanediamine]
Muscarinic M1 receptors [1]
  inhibition at 10 µM: 99.3%

## CCN(CC)CCCNc1nnc(C)c2c1cc1n2CCCC1 [Example 8, N,N-Diethyl-N'-[6,7,8,9-tetrahydro-4-(methyl)-pyridazino[4,5-b]indolizin-1-yl]-1.3-propanediamine]
Muscarinic M1 receptors [1]
  inhibition at 10 µM: 98%

## Cc1nnc(NCCN2CC3CCC(CC3)C2)c2cc3n(c12)CCCC3 [Example 9]
Human m1 receptors
  Ki: 80 nM

## Cc1nnc(NCCCN2CC3CCC(CC3)C2)c2cc3n(c12)CCCC3 [Example 10, N-[3-(3-Azabicyclo[3.2.2]non-3-yl)propyl]-6,7,8,9-tetrahydro-4-(methyl)pyridazino[4,5-b]indolizin-1-amine]
Human m1 receptors
  Ki: 9 nM

## Cc1nnc(NCCCCN2CC3CCC(CC3)C2)c2cc3n(c12)CCCC3 [Example 11, N-[4-(3-Azabicyclo[3.2.2]non-3-yl)butyl]-6,7,8,9-tetrahydro-4-methylpyridazino[4,5-b]indolizin-1-amine]
Muscarinic M2 receptors [2]
  Ki: 13.4 nM
Muscarinic M2 receptors [3]
  M2/M1 Ki ratio: 10
Muscarinic M1 receptors [4]; 1 μM, rat cortex, [^3 H]PZ 0.5 nM, read-out: M1 Binding % Inhib. of [^3 H] Pz @ 1 μM
  inhibition at 1 µM: 101%
Muscarinic M1 receptors [4]; Table II, rat brain M1
  Ki: 1.34 nM
[5]
  Emax: 102%

## FC(F)(F)c1nnc(NCCCCN2CC3CCC(CC3)C2)c2cc3n(c12)CCCC3 [Example 12, N-[4-(3-Azabicyclo[3.2.2]non-3-yl)butyl]-6,7,8,9-tetrahydro-4-(trifluoromethyl)-pyridazino[4,5-b]indolizin-1-amine]
Human m1 receptors
  Ki: 206 nM

## CCN(CC)CCCNc1nnc(COC)c2c1cc1n2CCCC1 [Example 13, N,N-Diethyl-N'-[6,7,8,9-tetrahydro-4-(methoxymethyl)-pyridazino[4,5-b]indolizin-1-yl]-1.3-propanediamine]
Muscarinic M1 receptors [1]
  inhibition at 10 µM: 109%

## COCc1nnc(NCCCCN2CC3CCC(CC3)C2)c2cc3n(c12)CCCC3 [Example 14, N-[4-(3-Azabicyclo[3.2.2]non-3-yl)butyl]-6,7,8,9-tetrahydro-4-(methoxymethyl)-pyridazino[4,5-b]indolizin-1-amine]
[5]
  Emax: 73%
Muscarinic M1 receptors [1]
  inhibition at 10 µM: 101%

## c1ccc(COCc2nnc(NCCCCN3CCOCC3)c3cc4n(c23)CCCC4)cc1 [Example 15, 6,7,8,9,-Tetrahydro-N-[4-(4-morpholinyl)butyl]-4-[(phenylmethoxy)methyl]-pyradazino[4,5-b]indolizin-1-amine]
Muscarinic M1 receptors [1]
  inhibition at 10 µM: 100%

## COC(=O)C1=CCCN(C)C1 [arecoline]
[6]
  half-life: short half-life
Alzheimer's Disease
  improvement in memory: memory improvement in patients with mild to moderate Alzheimer's Disease

## C[N+](C)(C)CCOC(N)=O [carbachol]
[7]
  ability to cross the blood brain barrier: not able to cross the blood brain barrier

## C[C@@H]1O[C@H](C[N+](C)(C)C)C[C@H]1O [muscarine]
m1 receptors
  activation of m1 receptors: able to fully activate m1 receptors
[7]
  ability to cross the blood brain barrier: not able to cross the blood brain barrier

## Nc1c2c(nc3ccccc13)CCCC2 [tacrine]
Alzheimer's Disease; higher doses
  adverse side effects: adverse side effects especially at the higher doses
Alzheimer's Disease
  improvement in memory: improvement in memory can be shown in patients with mild to moderate Alzheimer's Disease
